Assay: Solubility of IDAN in THF and in AAN

`N#CCNCC#N` [IDAN, iminodiacetonitrile] gave a dissolved concentration (in AAN at 40° C.) of roughly 52%, a dissolved concentration (in AAN, room temperature, up to) of roughly 35% and a solubility (in THF at room temperature) of roughly 10%.
